# Experiments:
# 66 cancer cell lines = assay: CTG cell viability assay, 66 cancer cell lines (AUC); type: cell-based, human; conditions: for activity (AUC) in hematological malignancies compared to solid organ cancers: ANOVA p-value=2.3e-08
# Experimental: (§1) Cell lines and reagents. All cell lines were cultured in appropriate media supplemented with 10-15% fetal bovine serum (Cat #FND500, ExCell Bio, China) at a temperature of 37° C., 5% CO2 and 95% humidity. Cell viability was measured using the CTG Luminescent Cell Viability Assay (Promega, Madison, WI, USA) by standard procedures as described below. Satraplatin was purchased from MedChemExpress (Shanghai, PRC) and cisplatin from Qilu Pharm (Jinan, Shandong, PRC), respectively. 1 mM stock solutions of both drugs were established for storage at −20° C. as previously described (5).
# (§2) Determination of the half maximal inhibition concentration (IC50). Cells were harvested during the logarithmic growth period and cell numbers counted using Count-star (Inno-Alliance Biotech, USA). Cell density was adjusted to 4.44×10^4 cells/mL with the respective culture medium. Then, 90 μL cell suspensions were added in triplicate to a 96-well plate with the final cell density of 4×10^3 cells/well. […] The test plate was incubated for 72 h in the humidified incubator at 37° C. with 5% CO2, and then evaluated using CTG cell viability assay (Promega). For that purpose, plates were equilibrated at room temperature for approximately 30 min. Then, 50 μL CTG reagent was added to each well. […] Luminescence was recorded using EnVision Multi Label Reader (Perkin Elmer, Richmond, CA, USA).
# (§3) Data Analysis. The data were analyzed and visualized using GraphPad Prism 5.0 (GraphPad Software, San Diego, CA, USA) and Think-Cell 11 (Think-Cell Software, Berlin, Germany). […] The formula for calculating the cell survival rate was: Cell survival (%) at Cx=(Cx−M)/(N−M)×100%, Cx being the luminescence signal of cells cultured with any concentration of the test compound, M being the luminescence signal of the blank control (with no cells) and N being the vehicle control with culture medium containing 0.25% (v/v) dimethyl sulfoxide. The absolute IC50 was calculated according to the dose-response curve generated by GraphPad Prism 5.0. […]
# CTCL cell line HUT78 = assay: CTG cell viability assay, HUT78; type: cell-based, human
# Experimental: as §1
# (§4) Determination of the half maximal inhibition concentration (IC50). Cells were harvested during the logarithmic growth period and cell numbers counted using Count-star (Inno-Alliance Biotech, USA). Cell density was adjusted to 4.44×10^4 cells/mL with the respective culture medium. […] The test plate was incubated for 72 h in the humidified incubator at 37° C. with 5% CO2, and then evaluated using CTG cell viability assay (Promega). […] Luminescence was recorded using EnVision Multi Label Reader (Perkin Elmer, Richmond, CA, USA).
# (§5) Data Analysis. The data were analyzed and visualized using GraphPad Prism 5.0 (GraphPad Software, San Diego, CA, USA) and Think-Cell 11 (Think-Cell Software, Berlin, Germany). […] The absolute IC50 was calculated according to the dose-response curve generated by GraphPad Prism 5.0. […]
# [1] = system: hematological malignancies (n=44) cell lines; assay: CTG cell viability assay, hematological malignancy cell lines; type: cell-based, human
# Experimental: as §1, §2, §3
# OCI-LY3 cell line = assay: CTG cell viability assay, OCI-LY3; type: cell-based, human
# Experimental: as §1, §4, §5
# [2] = system: MTAP deficient cell lines; assay: Satraplatin IC50 plotted against MTAP status; type: cell-based, human
# Experimental: as §1, §4, §5
# DLBCL cell lines = assay: CTG cell viability assay, DLBCL cell lines; type: cell-based, human; conditions: DLBCL and its respective cell lines
# Experimental: as §1, §4, §5
# [3] = system: hormone refractory prostate cancer patients (HRPC); conditions: monotherapy; cited from earlier work
# [4] = cited from earlier work
# [5] = system: lymphoma cell lines harboring gene copy number deletions in the 9p21 locus; assay: Satraplatin sensitivity versus DNA copy number deletion; type: cell-based, human; conditions: MTAP/CDKN2A/CDKN2B/DMRTA1 deletions
# Experimental: as §2
# as §3, with “sulfoxide.” for “sulfoxide. The absolute IC50 was calculated according to the dose-response curve generated by GraphPad Prism 5.0.”
# BCL2 expression = conditions: cited from earlier work
# OCI-LY7 cells = assay: CTG cell viability assay, OCI-LY7; type: cell-based, human
# Experimental: as §1, §4, §5
smiles,measurement,setting,value
"CC(=O)[O][Pt]([NH2])([Cl])([Cl])([NH]C1CCCCC1)[O]C(C)=O [satraplatin, bis (acetato) ammine dichloro (cyclohexylamine) platinum (IV)]",activity (AUC) in hematological malignancies compared to solid organ cancers,66 cancer cell lines,significant higher activity in haematopoietic & lymphoid malignancies
same,activity (AUC) in hematological malignancies compared to solid organ cancers,66 cancer cell lines; listed as Satraplatin,significantly more active in hematological malignancies
same,median AUC value across all tested cell lines,"66 cancer cell lines; area under dose-response curve, 72 h, CTG, FIG. 1",2.35
same,IC50,CTCL cell line HUT78,low-micromolar
same,activity grouped by histology,"[1]; DLBCL, T-cell lymphoma, MCL, MM and Burkitt lymphoma cell lines",high activity
same,IC50 values,"[1]; group of hematologic malignancies, 72 h, CTG",low to sub micromolar levels
same,activity compared with standard cisplatin,"[1]; within the group of hematologic malignancies, p-value=0.009, FIG. 2",significantly more active
same,cell killing,OCI-LY3 cell line,killed very efficiently
same,activity compared with cisplatin,OCI-LY3 cell line; p-value of 0.0006,significantly more active than cisplatin
same,activity in MTAP deleted hematopoietic cell lines,[2],high activity
same,IC50 values,DLBCL cell lines,low micromolar or even sub-molar
same,objective response rate,[3],up to 31%
same,access to the cerebrospinal fluid,[4],access the cerebrospinal fluid at sufficient dose levels
same,activity on cell lines with 9p21 copy number deletions,[5],more active
same,effectiveness in contrast to oxaliplatin,BCL2 expression,significantly more effective
same,reduction of BCL2 expression,BCL2 expression; independently of P53 mutational status,up to 13 fold
same,killing compared to cisplatin,OCI-LY7 cells,significantly superior

# — patent US20250082600A1, “TREATING HAEMATOLOGICAL MALIGNANCIES BY MEANS OF SATRAPLATIN” (PHARMA& SCHWEIZ GMBH, priority 2022, published 2025)
